Measurements published in ChEMBL document CHEMBL1201862, “PubChem BioAssay data set” (2004).
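Method: 48-hour compound exposure of cells in 96-well plates, five concentrations, linear interpolation of endpoints. GI50 is the concentration that inhibits growth by half.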 The source made the active and inactive calls. Cut-off read from the data, not from the text of the source: active = GI50 up to about 1.1 µM and inactive = higher.

Key:
Test in all cases: NCI anticancer screen, dose series, 48 h
[1] = test system: MDA-MB-231
[2] = test system: OVCAR-4
[3] = test system: SK-MEL-5
[4] = test system: SF-295
[5] = test system: UACC-257
[6] = test system: HCT-116
[7] = test system: PC-3
[8] = test system: NCI/ADR-RES
[9] = test system: SW-620
[10] = test system: CAKI-1
[11] = test system: COLO 205
[12] = test system: A498
[13] = test system: SK-MEL-28
[14] = test system: HT-29
[15] = test system: EKVX
[16] = test system: HCT-15
[17] = test system: MDA-MB-435
[18] = test system: Malme-3M
[19] = test system: NCI-H522
[20] = test system: IGROV-1

Row | Compound | GI50 [1] | GI50 [2] | GI50 [3] | GI50 [4] | GI50 [5] | GI50 [6] | GI50 [7] | GI50 [8] | GI50 [9] | GI50 [10] | GI50 [11] | GI50 [12] | GI50 [13] | GI50 [14] | GI50 [15] | GI50 [16] [µM] | GI50 [17] | GI50 [18] | GI50 [19] | GI50 [20]
1 | Cc1csc2nc(-c3ccc(Cl)c([N+](=O)[O-])c3)c(/C=N/NC(=N)N)n12 | 1.77 µM (inactive) | 1.64 µM (inactive) | 1.52 µM (inactive) | 1.4 µM (inactive) | 0.459 µM (active) | 1.68 µM (inactive) | 1.48 µM (inactive) | 2.21 µM (inactive) | 0.384 µM (active) | 1.83 µM (inactive) | 1.15 µM (inactive) | 1.51 µM (inactive) | 1.82 µM (inactive) | 1.77 µM (inactive) | 1.49 µM (inactive) | 1.66 | 1.69 µM (inactive) | 1.9 µM (inactive) |  | 
2 | CC1=NN(c2cccc(Cl)c2)C2(SCC(=O)N2c2nc3ccccc3s2)/C1=C\c1ccccc1 (configuration not stated) | 24.4 µM (inactive) | 16.7 µM (inactive) | 12.6 µM (inactive) | 21.6 µM (inactive) | 21.9 µM (inactive) | 15.9 µM (inactive) | 23.6 µM (inactive) | 24.9 µM (inactive) | 19.6 µM (inactive) | 20 µM (inactive) |  | 23.2 µM (inactive) | 27.5 µM (inactive) | 21 µM (inactive) | 36.4 µM (inactive) | 16 | 18.3 µM (inactive) |  | 14.6 µM (inactive) | 17.9 µM (inactive)
3 | CC1(C)C2CC(=O)C1(C)C(O)C2Br (configuration not stated) | > 100 µM (inactive) |  | > 100 µM (inactive) | > 100 µM (inactive) |  | > 100 µM (inactive) | > 100 µM (inactive) | > 100 µM (inactive) | > 100 µM (inactive) |  |  | > 100 µM (inactive) | > 100 µM (inactive) | > 100 µM (inactive) | > 100 µM (inactive) | > 100 | > 100 µM (inactive) | > 100 µM (inactive) |  | > 100 µM (inactive)
4 | O=C(/C=C/c1ccsc1)c1ccsc1 | 20.6 µM (inactive) | 37.2 µM (inactive) | 19.2 µM (inactive) | 40.7 µM (inactive) | 19.1 µM (inactive) | 16.2 µM (inactive) | 19.8 µM (inactive) | > 100 µM (inactive) | 24.8 µM (inactive) | 20.9 µM (inactive) | 22.4 µM (inactive) | 37.5 µM (inactive) | 37.1 µM (inactive) | 26.8 µM (inactive) | 70.5 µM (inactive) | 19.1 | 22.5 µM (inactive) | 26.4 µM (inactive) |  | 31.3 µM (inactive)
5 | COc1ccc(CCN2C(=O)CC34C=CC(CC3C2=O)O4)cc1OC (configuration not stated) | > 100 µM (inactive) | > 100 µM (inactive) | > 100 µM (inactive) | > 100 µM (inactive) | > 100 µM (inactive) | > 100 µM (inactive) | > 100 µM (inactive) | > 100 µM (inactive) | > 100 µM (inactive) | > 100 µM (inactive) | > 100 µM (inactive) | > 100 µM (inactive) | > 100 µM (inactive) | > 100 µM (inactive) | > 100 µM (inactive) | > 100 | > 100 µM (inactive) |  |  | > 100 µM (inactive)
6 | Cc1cccc(/N=N/c2c(C)nn(C(=O)CC(=O)Nc3ccc(Cl)cc3)c2C)c1 | 20.7 µM (inactive) | > 100 µM (inactive) | > 100 µM (inactive) | > 100 µM (inactive) | > 100 µM (inactive) | 67.1 µM (inactive) | 69 µM (inactive) | > 100 µM (inactive) | > 100 µM (inactive) | > 100 µM (inactive) | > 100 µM (inactive) | 43.8 µM (inactive) | > 100 µM (inactive) | > 100 µM (inactive) | 13.4 µM (inactive) | 47.8 | > 100 µM (inactive) |  | 53.3 µM (inactive) | 
7 | CCC1CC2CN3CCc4c([nH]c5c(-c6c(OC)ccc7c8c([nH]c67)[C@]6(C(=O)OC)CC7CC(CC)C6N(CC8)C7)c(O)ccc45)[C@](C(=O)OC)(C2)C13 (some centres not stated) | 21.6 µM (inactive) |  | 13.6 µM (inactive) | 17.4 µM (inactive) | 18.6 µM (inactive) | 13 µM (inactive) | 13.6 µM (inactive) | 20.4 µM (inactive) | 12.4 µM (inactive) | 12.6 µM (inactive) | 11.4 µM (inactive) | 15.1 µM (inactive) | 15.8 µM (inactive) | 5.37 µM (inactive) | 17.1 µM (inactive) | 15.2 | 11.1 µM (inactive) | > 10 µM (inactive) | 15.7 µM (inactive) | 14 µM (inactive)
8 | C/C(=C\C(=O)O)C(=O)N(C)c1ccccc1I | > 100 µM (inactive) | > 100 µM (inactive) | > 100 µM (inactive) | > 100 µM (inactive) | > 100 µM (inactive) | > 100 µM (inactive) | > 100 µM (inactive) | > 100 µM (inactive) | > 100 µM (inactive) | > 100 µM (inactive) | > 100 µM (inactive) | > 100 µM (inactive) | > 100 µM (inactive) |  | > 100 µM (inactive) | > 100 | > 100 µM (inactive) | > 100 µM (inactive) |  | 
